Experimental findings from patent publication US10316017B2, “COT modulators and methods of use thereof” (Gilead Sciences, Inc., priority 2015, dated 2019) are described below.

Assay [1] concerns TNFα production in LPS-stimulated human monocytes. Description: Cot Monocyte TNFα Cell Based Assay. As to conditions: Homo sapiens, Monocyte, read-out: EC50 TNF. The method in brief:
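Cells at 5,000/well were pretreated with compound for 1 h at 37 °C (0.5% DMSO final), then stimulated with 50 pg/ml LPS for 4 h at 37 °C. Supernatant TNFα was measured by two-antibody TR-FRET after overnight room-temperature incubation; values are percent of control between unstimulated and stimulated wells.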

For assay [2], the target named is T1, human Cot catalytic domain (30-397 amino acids) (Homo sapiens, UniProt P41279).
T1 construct: Purified recombinant human Cot catalytic domain (30-397 amino acids) was purchased from Cama Biosciences; purchased Cama Biosciences (so in the source)
T1 sequence (P41279 30-397): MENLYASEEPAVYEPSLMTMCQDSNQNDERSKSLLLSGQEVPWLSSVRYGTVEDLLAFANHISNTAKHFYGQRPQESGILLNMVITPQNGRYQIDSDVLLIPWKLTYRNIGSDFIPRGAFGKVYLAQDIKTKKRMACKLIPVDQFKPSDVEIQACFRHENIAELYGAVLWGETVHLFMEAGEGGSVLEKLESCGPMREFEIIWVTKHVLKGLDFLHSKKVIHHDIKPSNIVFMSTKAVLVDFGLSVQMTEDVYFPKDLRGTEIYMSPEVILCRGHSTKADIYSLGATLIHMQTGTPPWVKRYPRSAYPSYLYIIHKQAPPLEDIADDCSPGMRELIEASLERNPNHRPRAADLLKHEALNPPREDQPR
Description: High Throughput Cot Biochemical Assay (KinEASE TR-FRET). The note with it: Cot KinEASE TR-FRET, 400 μM ATP; read-out: IC50 HTRF. The method in brief: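 Reaction of 5 nM recombinant human Cot catalytic domain (aa 30-397) with 1 μM STK3 peptide (XL665-labeled) and 400 μM ATP in 10 mM MOPS pH 7.0, 10 mM MgOAc, 1 mM DTT, 0.5 mg/mL BSA, 0.1% DMSO. Phosphopeptide detected by TR-FRET with europium anti-phospho antibody.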

The mark [3] stands for this setting: LPS-stimulated human monocytes, TNFα TR-FRET.

Each structure is given as a SMILES string. pEC50, pIC50: −log10 of the molar value. Read-outs that look alike come from different tables or passages of the source. Bounds are passed on as bounds.

As to `CC(C)(C)CNc1c(C#N)cnc2c(C#N)cc(N[C@@H](c3ccc(F)cc3)c3cn(C4(C(N)=O)CCC4)nn3)cc12` [Example 985, (S)-1-(4-(((3,8-dicyano-4-(neopentylamino)quinolin-6-yl)amino)(4-fluorophenyl)methyl)-1H-1,2,3-triazol-1-yl)cyclobutane-1-carboxamide], in assay [1] (setting [3]), the negative-log EC50 (pEC50) – broadly, −log10 of the EC50, conventionally taken in molar units – was 6.92. In addition, the pIC50 (as a rule, the negative decadic logarithm of the IC50, by convention in mol/L) in assay [2] was 8.40.

`N#Cc1cnc2c(Cl)cc(N[C@@H](c3ccccc3)c3cn(C4CC4)nn3)cc2c1N[C@@H](c1ccccc1)C(F)(F)CO` [Example 986, 8-chloro-6-(((S)-(1-cyclopropyl-1H-1,2,3-triazol-4-yl)(phenyl)methyl)amino)-4-(((S)-2,2-difluoro-3-hydroxy-1-phenylpropyl)amino)quinoline-3-carbonitrile]: the pEC50 in assay [1] (setting [3]) is 6.65. In assay [2], the pIC50 is 7.89.

Turning to `CC(C)(C)CNc1c(C#N)cnc2c(C#N)cc(N[C@@H](c3ccc(F)cc3)c3cn(C4(c5cccnn5)CC4)nn3)cc12` [Example 987, (S)-6-(((4-fluorophenyl)(1-(1-(pyridazin-3-yl)cyclopropyl)-1H-1,2,3-triazol-4-yl)methyl)amino)-4-(neopentylamino)quinoline-3,8-dicarbonitrile], the pEC50 in assay [1] (setting [3]) was 7.16. Also, in assay [2], the pIC50 is 7.49.

Regarding `[2H][C@](Nc1cc(Br)c2ncc(C#N)c(NCC(C)(C)C)c2c1)(c1ccc(F)cc1)c1cn(CC(O)CNC(C)(C)C)nn1` (stereo partly drawn) [Example 988, 8-bromo-6-(((1S)-(1-(3-(tert-butylamino)-2-hydroxypropyl)-1H-1,2,3-triazol-4-yl)(4-fluorophenyl)methyl-d)amino)-4-(neopentylamino)quinoline-3-carbonitrile], the pEC50 in assay [1] (setting [3]) was 6.48. The pIC50 in assay [2] was 7.85.

With `CC(C)(C)CNc1c(C#N)cnc2c(Cl)cc(N[C@@H](c3ccc(F)cc3)c3cn(C4(C#N)CC4)nn3)cc12` [Example 989, (S)-8-chloro-6-(((1-(1-cyanocyclopropyl)-1H-1,2,3-triazol-4-yl)(4-fluorophenyl)methyl)amino)-4-(neopentylamino)quinoline-3-carbonitrile], the pEC50 in assay [1] (setting [3]) is 6.95. The pIC50 in assay [2] is 7.92.

`CC(C)(C)CNc1c(C#N)cnc2c(Cl)cc(N[C@@H](c3ccc(F)cc3)c3cn(C4(C)CC4)nn3)cc12` [Example 990, (S)-8-chloro-6-(((4-fluorophenyl)(1-(1-methylcyclopropyl)-1H-1,2,3-triazol-4-yl)methyl)amino)-4-(neopentylamino)quinoline-3-carbonitrile]: the pEC50 in assay [1] (setting [3]) was 7.12. In addition, the pIC50 in assay [2] is 7.92.

Take `CC(C)(C)CNc1c(C#N)cnc2c(Cl)cc(N[C@@H](c3ccc(F)cc3)c3cn(C4(c5ccccn5)CC4)nn3)cc12` [Example 991, (S)-8-chloro-6-(((4-fluorophenyl)(1-(1-(pyridin-2-yl)cyclopropyl)-1H-1,2,3-triazol-4-yl)methyl)amino)-4-(neopentylamino)quinoline-3-carbonitrile]: the pEC50 in assay [1] (setting [3]) was 6.87. The pIC50 in assay [2] is 7.47.

As for `CC(C)(C)CNc1c(C#N)cnc2c(Cl)cc(N[C@@H](c3ccc(F)cc3)c3cn(C4(C(N)=O)CCC4)nn3)cc12` [Example 992, (S)-1-(4-(((8-chloro-3-cyano-4-(neopentylamino)quinolin-6-yl)amino)(4-fluorophenyl)methyl)-1H-1,2,3-triazol-1-yl) cyclobutane-1-carboxamide], the pEC50 in assay [1] (setting [3]) is 7.12. Further, the pIC50 in assay [2] was 8.30.

Consider `[2H][C@](Nc1cc(C#N)c2ncc(C#N)c(NCC(C)(C)C)c2c1)(c1ccc(F)cc1)c1cn(CCC2CN2C(C)(C)C)nn1` (stereo partly drawn) [Example 993, 6-(((1S)-(1-(2-(1-(tert-butyl)aziridin-2-yl)ethyl)-1H-1,2,3-triazol-4-yl)(4-fluorophenyl)methyl-d)amino)-4-(neopentylamino) quinoline-3,8-dicarbonitrile], for which the pEC50 in assay [1] is 5.44. The pIC50 in assay [2] was 7.49.

On to `[2H][C@](Nc1cc(C#N)c2ncc(C#N)c(NCC(C)(C)C)c2c1)(c1ccc(F)cc1)c1cn(-c2cccnc2)nn1` [Example 994, (S)-6-(((4-fluorophenyl)(1-(pyridin-3-yl)-1H-1,2,3-triazol-4-yl)methyl-d)amino)-4-(neopentylamino) quinoline-3,8-dicarbonitrile], for which the pEC50 in assay [1] (setting [3]) was 6.99. In assay [2], the pIC50 was 7.48.

Regarding `Cc1c(C#N)cccc1[C@H](Nc1cc(C#N)c2ncc(C#N)c(NCC(C)(C)C)c2c1)c1cn(C2(C(F)(F)F)CC2)nn1` [Example 995, (S)-6-(((3-cyano-2-methylphenyl)(1-(1-(trifluoromethyl)cyclopropyl)-1H-1,2,3-triazol-4-yl)methyl)amino)-4-(neopentylamino)quinoline-3,8-dicarbonitrile], the pEC50 in assay [1] (setting [3]) was 7.31. Moreover, in assay [2], the negative-log IC50 (pIC50) is 8.52.

With `CC(C)(C)CNc1c(C#N)cnc2c(Cl)cc(N[C@@H](c3ccc(F)cc3)c3cn(C4(C(N)=O)CC4)nn3)cc12` [Example 996, (S)-1-(4-(((8-chloro-3-cyano-4-(neopentylamino)quinolin-6-yl)amino)(4-fluorophenyl)methyl)-1H-1,2,3-triazol-1-yl)cyclopropane-1-carboxamide], the pEC50 in assay [1] (setting [3]) was 6.96. The pIC50 in assay [2] was 8.22.

With `CC(C)(C)CNc1c(C#N)cnc2c(Cl)cc(N[C@@H](c3ccc(F)cc3)c3cn(C4(c5cccnc5)CC4)nn3)cc12` [Example 997, (S)-8-chloro-6-(((4-fluorophenyl)(1-(1-(pyridin-3-yl)cyclopropyl)-1H-1,2,3-triazol-4-yl)methyl)amino)-4-(neopentylamino) quinoline-3-carbonitrile], the pEC50 in assay [1] (setting [3]) was 7.21. Besides, the negative-log IC50 (pIC50) in assay [2] is 7.32.

As to `CC(C)(C)CNc1c(C#N)cnc2c(Cl)cc(N[C@@H](c3ccc(F)cc3)c3cn(C4(C(F)(F)F)CCC4)nn3)cc12` [Example 998, (S)-8-chloro-6-(((4-fluorophenyl)(1-(1-(trifluoromethyl)cyclobutyl)-1H-1,2,3-triazol-4-yl)methyl)amino)-4-(neopentylamino)quinoline-3-carbonitrile], in assay [1] (setting [3]), the pEC50 was 6.60. Moreover, in assay [2], the pIC50 was 7.28.

Take `CC(C)(C)CNc1c(C#N)cnc2c(F)cc(N[C@H](c3cn(C4(C(N)=O)CC4)nn3)c3ccccc3Cl)cc12` [Example 999, (S)-1-(4-((2-chlorophenyl)((3-cyano-8-fluoro-4-(neopentylamino)quinolin-6-yl)amino)methyl)-1H-1,2,3-triazol-1-yl)cyclopropane-1-carboxamide]: the pEC50 in assay [1] (setting [3]) was 6.51. The pIC50 in assay [2] is 7.20.

Take `CC(C)(C)CNc1c(C#N)cnc2c(F)cc(N[C@H](c3cn(C4(C#N)CC4)nn3)c3ccccc3Cl)cc12` [Example 1000, (S)-6-(((2-chlorophenyl)(1-(1-cyanocyclopropyl)-1H-1,2,3-triazol-4-yl)methyl)amino)-8-fluoro-4-(neopentylamino)quinoline-3-carbonitrile]: in assay [1] (setting [3]), the pEC50 was 6.75. The pIC50 in assay [2] was 7.24.

For the molecule `CC(C)(C)CNc1c(C#N)cnc2c(F)cc(N[C@H](c3cn(C(F)(F)C(N)=O)nn3)c3ccccc3Cl)cc12` [Example 1001, (S)-2-(4-((2-chlorophenyl)((3-cyano-8-fluoro-4-(neopentylamino)quinolin-6-yl)amino)methyl)-1H-1,2,3-triazol-1-yl)-2,2-difluoroacetamide], the pEC50 in assay [1] (setting [3]) is 6.46. Also, the pIC50 in assay [2] is 7.66.

Take `CC(C)(C)CNc1c(C#N)cnc2c(Cl)cc(N[C@@H](c3ccc(F)cc3)c3cn(CC(F)F)nn3)cc12` [Example 1002, (S)-8-chloro-6-(((1-(2,2-difluoroethyl)-1H-1,2,3-triazol-4-yl) (4-fluorophenyl)methyl)amino)-4-(neopentylamino) quinoline-3-carbonitrile]: the negative-log EC50 (pEC50) in assay [1] (setting [3]) was 6.69. Also, the pIC50 in assay [2] was 7.85.

For `CC(C)(C)CNc1c(C#N)cnc2c(Cl)cc(N[C@H](c3cn(C4CC4)nn3)c3cccc4ccccc34)cc12` [Example 1003, (S)-8-chloro-6-(((1-cyclopropyl-1H-1,2,3-triazol-4-yl)(naphthalen-1-yl)methyl)amino)-4-(neopentylamino)quinoline-3-carbonitrile], the pEC50 in assay [1] (setting [3]) was 6.64. Besides, the pIC50 in assay [2] is 7.72.

In the case of `[2H][C@@](Nc1cc(C#N)c2ncc(C#N)c(NCC(C)(C)C)c2c1)(c1cn(-c2cccnc2)nn1)c1ccccc1Cl` [Example 1004, (S)-6-(((2-chlorophenyl)(1-(pyridin-3-yl)-1H-1,2,3-triazol-4-yl)methyl-d)amino)-4-(neopentylamino)quinoline-3,8-dicarbonitrile], in assay [1] (setting [3]), the pEC50 was at most 6.00. Moreover, the pIC50 in assay [2] was 7.48.

Consider `[2H][C@](Nc1cc(C#N)c2ncc(C#N)c(NCC(C)(C)C)c2c1)(c1cccc(C#N)c1)c1cn(-c2cccnc2)nn1` [Example 1005, (S)-6-(((3-cyanophenyl)(1-(pyridin-3-yl)-1H-1,2,3-triazol-4-yl)methyl-d)amino)-4-(neopentylamino) quinoline-3,8-dicarbonitrile], for which the pEC50 in assay [1] (setting [3]) is at most 6.00. For the same molecule, the pIC50 in assay [2] was at most 5.00.

With `[2H][C@](Nc1cc(C#N)c2ncc(C#N)c(NCC(C)(C)C)c2c1)(c1ccc(F)cc1)c1cn(C2(CF)CC2)nn1` [Example 1006, (S)-6-(((1-(1-(fluoromethyl)cyclopropyl)-1H-1,2,3-triazol-4-yl)(4-fluorophenyl)methyl-d)amino)-4-(neopentylamino)quinoline-3,8-dicarbonitrile], in assay [1] (setting [3]), the negative-log EC50 (pEC50) was 7.14. Also, the pIC50 in assay [2] was 8.05.
